Laboratory results from patent US12398154B2, “Azaquinazoline pan-KRas inhibitors” (Mirati Therapeutics, Inc., priority 2020, dated 2025).

Columns and labels:
KRas G12D = KRas G12D (Homo sapiens, UniProt P01116, G12D); assay: biochemical;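 also: TR-FRET displacement binding assay on KRas, read after a one-hour incubation at room temperature, IC50 fitted from percent-of-control values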
Procedure: (§2) The ability of a compound to bind to KRas was measured using a TR-FRET displacement assay. […] After a 60-minute incubation at room temperature, the reaction was measured using a BMG LABTECH CLARIO star Plus via TR-FRET. […] The POC values were fit to a 4-parameter IC50 equation and the IC50 value reported.

KRas G12V = KRas G12V (Homo sapiens, UniProt P01116, G12V); assay: biochemical;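 also: KRas binding measured by TR-FRET displacement at room temperature, IC50 fitted from percent of control values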
Sequence of KRas G12V (P01116 1-169 isoform P01116-2 G12V): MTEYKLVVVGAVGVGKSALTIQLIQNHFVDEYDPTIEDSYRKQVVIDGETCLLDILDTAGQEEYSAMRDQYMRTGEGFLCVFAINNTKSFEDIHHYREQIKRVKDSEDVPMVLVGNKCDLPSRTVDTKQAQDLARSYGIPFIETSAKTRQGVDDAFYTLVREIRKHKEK
Procedure: as §2

KRas G12R = KRas G12R (Homo sapiens, UniProt P01116, G12R); assay: biochemical;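 also: TR-FRET displacement assay of compound binding to KRas, read after one hour at room temperature, potency from a four-parameter fit of percent-of-control values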
Sequence of KRas G12R (P01116 1-169 isoform P01116-2 G12R): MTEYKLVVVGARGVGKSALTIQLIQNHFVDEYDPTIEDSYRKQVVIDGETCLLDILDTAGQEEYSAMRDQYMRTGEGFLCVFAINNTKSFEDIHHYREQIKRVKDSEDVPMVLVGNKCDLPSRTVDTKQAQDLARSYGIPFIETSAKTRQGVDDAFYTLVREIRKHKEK
Procedure: as §2

pERK in MKN1 cells = assay: Inhibition of KRas phosphorylation of ERK (Cisbio HTRF pERK assay); details: Homo sapiens, MKN-1, 3 h, read-out: Inhibition (HTRF IC50) of KRas-mediated Phosphorylation of ERK, MKN1
pERK in PSN1 cells = assay: as above; details: Homo sapiens, PSN1, 3 h, read-out: Inhibition (HTRF IC50) of KRas-mediated Phosphorylation of ERK, PSN1
pERK in ASPC1 cells = assay: as above; details: Homo sapiens, ASPC1, read-out: Inhibition (HTRF IC50) of KRas-mediated Phosphorylation of ERK, AsPC-1
Procedure: To harvest cells from flask using 0.05% Trypsin/EDTA solution. Add 10 mL of media to stop trypsinizing. Pipette the cells into a conical bottom 50 mL centrifuge tube and centrifuge 5 min×1000 rpm. • 2. Re-suspend the cell pellet in media, take a cell count, and then adjust the cell density using fresh media. • 3. Seed 6,000 cells into cell culture plate with 50 μL media. […] Incubate cell plate overnight in a 37° C., 5% CO2 incubator. • Compound titrations • 1. Use Tecan to complete the compound addition. Compounds start from 10 uM top, 3-fold dilution, and 10 doses. The final DMSO concentration is 0.8%. Dispensed 0.2 uM Trametinib as Min control. • 2. Incubate cell plate for 3 hrs in the incubator. • Detection with cisbio pERK HTRF kit • 1. […] At the end of the compound treatment, flick-off the media. • 3. Add 35 μL of lysis buffer per well using a Multidrop Combi. Then place on a plate agitator shaking at 300 rpm at 4° C. for 40 mins. • 4. Make up the HTRF antibody buffer. For each assay plate, mix 50 μL of d2-conjugate antibody with 950 μL of detection buffer. Similarly, mix 50 μL of Cryptate antibody with 950 μL of detection buffer. Then mix the two diluted antibodies together. • 5. Dispense 3.4 μL the antibody buffer to wells of an empty assay plate. Seal the plate and centrifuge plate 30 sec×1000 rpm. • 6. At the end of the 4° C. lysis, centrifuge the lysate plates 3 mins×1500 rpm. • 7. Use the Bravo to transfer 13.6 μL of lysate from cell culture plate to assay plate.
Then incubate assay plate for 2 hrs at room temperature. […] At the end of incubation, read plate on the Envision after centrifuging plate 30 sec× • 1000 rpm.

pERK in H727 cells = assay: as above; details: Homo sapiens, NCI-H727, read-out: Inhibition (HTRF IC50) of KRas-mediated Phosphorylation of ERK, H727
pERK in A549 cells = assay: as above; details: Homo sapiens, A549, read-out: Inhibition (HTRF IC50) of KRas-mediated Phosphorylation of ERK, A549
pERK in H460 cells = assay: as above; details: Homo sapiens, NCI-H460, read-out: Inhibition (HTRF IC50) of KRas-mediated Phosphorylation of ERK, H460
pERK in HCT116 cells = assay: as above; details: Homo sapiens, HCT-116, read-out: Inhibition (HTRF IC50) of KRas-mediated Phosphorylation of ERK, HCT116
pERK in H358 cells = assay: as above; details: Homo sapiens, NCI-H358, read-out: Inhibition (HTRF IC50) of KRas-mediated Phosphorylation of ERK, H358
[1] = system: phospho-ERK in AsPC-1 (G12D) cells; assay: Inhibition of KRas-mediated phosphorylation of ERK (in-cell western); assay type: cell-based; details: Homo sapiens, ASPC1, 3 h, 3 hours compound, phospho-ERK normalized to GAPDH
Procedure, shortened: (§1)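 After a 3-hour incubation with diluted compound in 0.5% DMSO, cells are fixed, permeabilized and stained overnight at 4° C for phosphorylated ERK and GAPDH.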

[2] = system: phospho-ERK in NCI-H460 (Q61H) cells; assay: as above; assay type: cell-based; details: Homo sapiens, NCI-H460, 3 h, 3 hours compound, phospho-ERK normalized to GAPDH
Procedure, shortened: as §1

[3] = system: phospho-ERK in NCI-H727 (G12V) cells; assay: as above; assay type: cell-based; details: Homo sapiens, NCI-H727, 3 h, 3 hours compound, phospho-ERK normalized to GAPDH
Procedure, shortened: as §1

Sequence of KRas G12D (P01116 1-169 isoform P01116-2 G12D): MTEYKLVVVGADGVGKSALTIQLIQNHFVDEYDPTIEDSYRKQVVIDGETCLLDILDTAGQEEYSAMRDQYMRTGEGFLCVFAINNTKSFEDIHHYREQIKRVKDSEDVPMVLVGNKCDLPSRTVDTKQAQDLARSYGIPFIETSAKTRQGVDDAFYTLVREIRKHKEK

| Structure (SMILES) | IC50 (KRas G12D) [nM] | IC50 (KRas G12V) [nM] | IC50 (KRas G12R) [nM] | IC50 (pERK in MKN1 cells) [nM] | IC50 (pERK in PSN1 cells) [nM] | IC50 (pERK in ASPC1 cells) [nM] | IC50 (pERK in H727 cells) [nM] | IC50 (pERK in A549 cells) [nM] | IC50 (pERK in H460 cells) [nM] | IC50 (pERK in HCT116 cells) [nM] | IC50 (pERK in H358 cells) [nM] | IC50 [1] [nM] | IC50 [2] [nM] | IC50 [3] [nM] |
| --- | --- | --- | --- | --- | --- | --- | --- | --- | --- | --- | --- | --- | --- | --- |
| CCNC(=O)c1cc2n(n1)CCCN(c1nc(OC[C@@]34CCCN3C[C@H](F)C4)nc3c(F)c(-c4cc(O)cc5ccc(F)c(CC)c45)ncc13)C2 [Example 356, N-ethyl-5-(7-(8-ethyl-7-fluoro-3-hydroxynaphthalen-1-yl)-8-fluoro-2-(((2R,7aS)-2-fluorohexahydro-1H-pyrrolizin-7a-yl)methoxy)pyrido[4,3-d]pyrimidin-4-yl)-5,6,7,8-tetrahydro-4H-pyrazolo[1,5-a][1,4]diazepine-2-carboxamide] | ≤ 2 | ≤ 2 | ≤ 2 | 40 | 9300 | 16 | 63 | 232 | 458 | 767 | 20 | – | – | – |
| Oc1cc(-c2ncc3c(N4CCCC5(CC(O)C5)C4)nc(OC[C@@]45CCCN4C[C@H](F)C5)nc3c2F)c2c(Br)c(F)ccc2c1 (stereo partly drawn) [Example 407, 6-(7-(8-bromo-7-fluoro-3-hydroxynaphthalen-1-yl)-8-fluoro-2-(((2R,7aS)-2-fluorohexahydro-1H-pyrrolizin-7a-yl)methoxy)pyrido[4,3-d]pyrimidin-4-yl)-6-azaspiro[3.5]nonan-2-ol] | ≤ 2 | ≤ 2 | ≤ 2 | 15 | 1330 | 27 | 15 | 27 | 26 | 41 | 3 | – | – | – |
| CN(C)C(=O)c1cc2n(n1)CCCN(c1nc(OC[C@@]34CCCN3C[C@H](F)C4)nc3c(F)c(-c4cc(O)cc5ccc(F)c(Br)c45)ncc13)C2 [Example 412, 5-(7-(8-bromo-7-fluoro-3-hydroxynaphthalen-1-yl)-8-fluoro-2-(((2R,7aS)-2-fluorohexahydro-1H-pyrrolizin-7a-yl)methoxy)pyrido[4,3-d]pyrimidin-4-yl)-N,N-dimethyl-5,6,7,8-tetrahydro-4H-pyrazolo[1,5-a][1,4]diazepine-2-carboxamide] | ≤ 2 | ≤ 2 | ≤ 2 | 34 | 5980 | 19 | 51 | 242 | 413 | 586 | 11 | – | – | – |
| Oc1cc(-c2ncc3c(N4CC5CC(O)C(C5)C4)nc(OC[C@@]45CCCN4C[C@H](F)C5)nc3c2F)c2c(Br)c(F)ccc2c1 (stereo partly drawn) [Example 402, 3-(7-(8-bromo-7-fluoro-3-hydroxynaphthalen-1-yl)-8-fluoro-2-(((2R,7aS)-2-fluorohexahydro-1H-pyrrolizin-7a-yl)methoxy)pyrido[4,3-d]pyrimidin-4-yl)-3-azabicyclo[3.2.1]octan-6-ol] | ≤ 2 | ≤ 2 | ≤ 2 | 3 | 514 | 12 | 14 | 34 | 51 | 46 | 4 | – | – | – |
| CCc1c(F)ccc2cc(O)cc(-c3ncc4c(N5CCCOCC5)nc(OC[C@@]56CCCN5C[C@H](F)C6)nc4c3F)c12 [Example 315, 5-ethyl-6-fluoro-4-(8-fluoro-2-(((2R,7aS)-2-fluorohexahydro-1H-pyrrolizin-7a-yl)methoxy)-4-(1,4-oxazepan-4-yl)pyrido[4,3-d]pyrimidin-7-yl)naphthalen-2-ol] | – | – | – | 5 | 1960 | 20 | 20 | 28 | 34 | 24 | 5 | – | – | – |
| CCc1c(F)ccc2cc(O)cc(-c3ncc4c(N5CCC[C@]6(C5)C[C@@H](O)C6)nc(OC[C@@]56CCCN5C[C@H](F)C6)nc4c3F)c12 (single isomer, unassigned) [Example 324] | – | – | – | 3 | 1440 | 35 | 22 | 95 | 99 | 61 | 14 | – | – | – |
| CCc1c(F)ccc2cc(O)cc(-c3ncc4c(N5CCC[C@@](C)(O)C5)nc(OCC5(CN(C)C)CC5)nc4c3F)c12 [Example 316, (R)-1-(2-((1-((dimethylamino)methyl)cyclopropyl)methoxy)-7-(8-ethyl-7-fluoro-3-hydroxynaphthalen-1-yl)-8-fluoropyrido[4,3-d]pyrimidin-4-yl)-3-methylpiperidin-3-ol] | – | – | – | 1 | 2040 | 8 | 32 | 51 | 69 | 30 | 9 | – | – | – |
| C[C@@]1(O)CCCN(c2nc(OC[C@@]34CCCN3C[C@H](F)C4)nc3c(F)c(-c4cc(O)cc5ccc(F)c(F)c45)ncc23)C1 [Example 514, (R)-1-(7-(7,8-difluoro-3-hydroxynaphthalen-1-yl)-8-fluoro-2-(((2R,7aS)-2-fluorohexahydro-1H-pyrrolizin-7a-yl)methoxy)pyrido[4,3-d]pyrimidin-4-yl)-3-methylpiperidin-3-ol] | – | – | – | 5 | 859 | 15 | 19 | 20 | 60 | 30 | 11 | – | – | – |
| CCc1c(F)ccc2cc(O)cc(-c3ncc4c(N5CCC[C@]6(C5)C[C@H](O)C6)nc(OC[C@@]56CCCN5C[C@H](F)C6)nc4c3F)c12 (single isomer, unassigned) [Example 323] | – | – | – | 2 | 600 | 8 | 8 | 19 | 11 | 22 | 2 | – | – | – |
| O=S1(=O)NC[C@]2(CCCN(c3nc(OC[C@@]45CCCN4C[C@H](F)C5)nc4c(F)c(-c5cc(O)cc6ccc(F)c(Cl)c56)ncc34)C2)N1 [Example 515, (R)-7-(7-(8-chloro-7-fluoro-3-hydroxynaphthalen-1-yl)-8-fluoro-2-(((2R,7aS)-2-fluorotetrahydro-1H-pyrrolizin-7a(SB)-yl)methoxy)pyrido[4,3-d]pyrimidin-4-yl)-2-thia-1,3,7-triazaspiro[4.5]decane2,2-dioxide] | ≤ 2 | ≤ 2 | ≤ 2 | – | – | 35 | 19 | 36 | 19 | 24 | 7 | – | – | – |
| CCc1c(F)ccc2cc(O)cc(-c3ncc4c(N5CCCC(C#N)CC5)nc(OC[C@@]56CCCN5C[C@H](F)C6)nc4c3F)c12 (some centres unmarked) [Example 173] | 6 | 4 | 6 | 42 | 5540 | 56 | 263 | – | 176 | 454 | 95 | 180 | 145 | 304 |
| CCc1c(F)ccc2cc(O)cc(-c3ncc4c(N5CCC[C@@](C)(O)C5)nc(OCC5(CN6CCCCC6)CC5)nc4c3F)c12 [Example 331, (R)-1-(7-(8-ethyl-7-fluoro-3-hydroxynaphthalen-1-yl)-8-fluoro-2-((1-(piperidin-1-ylmethyl)cyclopropyl)methoxy)pyrido[4,3-d]pyrimidin-4-yl)-3-methylpiperidin-3-ol] | ≤ 2 | ≤ 2 | ≤ 2 | 1 | – | 4 | 35 | 6 | 16 | 27 | 3 | – | – | – |
